Data reported in the supplement of paper PMC8253809.

What was measured:
[1] = tested on: DIPGX29 (H3.3 K27M diffuse intrinsic pontine glioma line); assay: growth inhibition relative to DMSO (0) and positive control (1) (fraction); higher = more growth inhibition
Procedure, shortened: (§1)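 Paediatric high-grade glioma (pHGG) cell lines and astrocytes were seeded on Geltrex-coated 384-well plates and exposed for 7 days to a two-drug dose matrix in two plate orientations. CellTiter-Glo luminescence was scaled, without log2 transformation, so that solvent wells equal 0 and positive-control wells equal 1. Values are expressed as fractional activity and served as input for response-surface synergy modelling. Single-agent values come from the one-drug arms of those same matrix plates.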

[2] = tested on: iASTRO (astrocyte control); assay: as above
Procedure, shortened: as §1

O=C(NOC[C@H](O)CO)c1ccc(F)c(F)c1Nc1ccc(I)cc1F + CC1(C)OCCn2c1nc1c(N3CCOCC3)nc(-c3cnc(N)nc3)nc12 [GDC0084]
growth inhibition
Conditions | compound 1 concentration 0.009766 µM | compound 1 concentration 0.01953 µM | compound 1 concentration 0.03906 µM | compound 1 concentration 0.07812 µM | compound 1 concentration 0.15625 µM | compound 1 concentration 0.3125 µM | compound 1 concentration 0.625 µM | compound 1 concentration 1.25 µM | compound 1 concentration 5 µM | compound 1 concentration 20 µM
[1], compound 2 concentration 0.03906 µM | 0.638 | 0.646 | 0.648 | 0.701 | 0.69 | 0.738 | 0.748 | 0.755 | 0.895 | 0.958
[1], compound 2 concentration 0.07812 µM | 0.15 | 0.207 | 0.157 | 0.241 | 0.208 | 0.306 | 0.424 | 0.498 | 0.796 | 0.919
[1], compound 2 concentration 0.15625 µM | 0.213 | 0.194 | 0.204 | 0.242 | 0.215 | 0.307 | 0.451 | 0.518 | 0.813 | 0.909
[1], compound 2 concentration 0.3125 µM | 0.306 | 0.272 | 0.343 | 0.357 | 0.359 | 0.415 | 0.506 | 0.652 | 0.859 | 0.947
[1], compound 2 concentration 0.625 µM | 0.411 | 0.38 | 0.431 | 0.462 | 0.487 | 0.495 | 0.632 | 0.697 | 0.917 | 0.981
[1], compound 2 concentration 1.25 µM | 0.531 | 0.526 | 0.609 | 0.603 | 0.627 | 0.625 | 0.79 | 0.803 | 0.952 | 0.985
[1], compound 2 concentration 5 µM | 0.911 | 0.936 | 0.919 | 0.945 | 0.966 | 0.973 | 0.966 | 0.993 | 0.999 | 1
[1], compound 2 concentration 20 µM | 0.933 | 0.947 | 0.948 | 0.968 | 0.964 | 0.984 | 0.989 | 0.996 | 1 | 1
[2], compound 2 concentration 0.03906 µM | 0.0351 | 0.072 | 0.0628 | 0.082 | 0.097 | 0.097 | 0.102 | 0.0401 | -0.0539 | -0.0303
[2], compound 2 concentration 0.07812 µM | 0.0868 | 0.0655 | 0.0861 | 0.0688 | 0.093 | 0.134 | 0.15 | 0.0961 | 0.0858 | 0.0424
[2], compound 2 concentration 0.15625 µM | 0.123 | 0.128 | 0.113 | 0.0769 | 0.0999 | 0.115 | 0.0997 | 0.104 | 0.0381 | 0.0629
[2], compound 2 concentration 0.3125 µM | 0.0584 | 0.0952 | 0.0549 | 0.0979 | 0.0838 | 0.126 | 0.158 | 0.146 | 0.164 | 0.196
[2], compound 2 concentration 0.625 µM | 0.0444 | 0.0912 | 0.0357 | 0.0123 | 0.112 | 0.148 | 0.303 | 0.443 | 0.516 | 0.588
[2], compound 2 concentration 1.25 µM | 0.21 | 0.214 | 0.279 | 0.319 | 0.44 | 0.568 | 0.731 | 0.784 | 0.811 | 0.836
[2], compound 2 concentration 5 µM | 0.756 | 0.777 | 0.798 | 0.811 | 0.83 | 0.858 | 0.875 | 0.887 | 0.901 | 0.887
[2], compound 2 concentration 20 µM | 0.822 | 0.806 | 0.821 | 0.841 | 0.849 | 0.873 | 0.889 | 0.901 | 0.9 | 0.909

CC1(C)OCCn2c1nc1c(N3CCOCC3)nc(-c3cnc(N)nc3)nc12 [GDC0084] + O=C(NOC[C@H](O)CO)c1ccc(F)c(F)c1Nc1ccc(I)cc1F [PD0325901]
growth inhibition
Conditions | compound 1 concentration 0.009766 µM | compound 1 concentration 0.01953 µM | compound 1 concentration 0.03906 µM | compound 1 concentration 0.07812 µM | compound 1 concentration 0.15625 µM | compound 1 concentration 0.3125 µM | compound 1 concentration 0.625 µM | compound 1 concentration 1.25 µM | compound 1 concentration 5 µM | compound 1 concentration 20 µM
[1], compound 2 concentration 0.03906 µM | 0.0494 | 0.0257 | 0.0988 | 0.197 | 0.244 | 0.304 | 0.508 | 0.598 | 0.891 | 0.96
[1], compound 2 concentration 0.07812 µM | 0.246 | 0.221 | 0.24 | 0.295 | 0.368 | 0.426 | 0.565 | 0.653 | 0.915 | 0.964
[1], compound 2 concentration 0.15625 µM | 0.138 | 0.16 | 0.18 | 0.286 | 0.308 | 0.402 | 0.515 | 0.704 | 0.92 | 0.97
[1], compound 2 concentration 0.3125 µM | 0.198 | 0.252 | 0.293 | 0.316 | 0.389 | 0.507 | 0.616 | 0.696 | 0.949 | 0.981
[1], compound 2 concentration 0.625 µM | 0.331 | 0.369 | 0.463 | 0.439 | 0.481 | 0.54 | 0.619 | 0.781 | 0.967 | 0.993
[1], compound 2 concentration 1.25 µM | 0.511 | 0.539 | 0.543 | 0.583 | 0.62 | 0.67 | 0.806 | 0.869 | 0.983 | 0.999
[1], compound 2 concentration 5 µM | 0.801 | 0.807 | 0.824 | 0.837 | 0.855 | 0.88 | 0.924 | 0.956 | 0.997 | 0.997
[1], compound 2 concentration 20 µM | 0.903 | 0.914 | 0.9 | 0.927 | 0.923 | 0.969 | 0.97 | 0.989 | 1 | 1
[2], compound 2 concentration 0.03906 µM | 0.09 | 0.0454 | 0.118 | 0.094 | 0.0396 | 0.0144 | -0.00856 | 0.184 | 0.758 | 0.807
[2], compound 2 concentration 0.07812 µM | 0.121 | 0.0878 | 0.134 | 0.118 | 0.109 | 0.12 | 0.0894 | 0.264 | 0.802 | 0.813
[2], compound 2 concentration 0.15625 µM | 0.0937 | 0.147 | 0.167 | 0.0963 | 0.0973 | 0.0664 | 0.0992 | 0.309 | 0.815 | 0.825
[2], compound 2 concentration 0.3125 µM | 0.149 | 0.11 | 0.135 | 0.176 | 0.144 | 0.0844 | 0.154 | 0.446 | 0.833 | 0.846
[2], compound 2 concentration 0.625 µM | 0.15 | 0.125 | 0.146 | 0.159 | 0.128 | 0.129 | 0.317 | 0.675 | 0.878 | 0.884
[2], compound 2 concentration 1.25 µM | 0.155 | 0.123 | 0.103 | 0.0682 | 0.108 | 0.207 | 0.459 | 0.766 | 0.878 | 0.893
[2], compound 2 concentration 5 µM | 0.108 | 0.0234 | 0.0231 | 0.0442 | 0.0662 | 0.219 | 0.546 | 0.791 | 0.875 | 0.891
[2], compound 2 concentration 20 µM | 0.14 | 0.0807 | 0.0709 | 0.0677 | 0.0926 | 0.24 | 0.627 | 0.821 | 0.881 | 0.902
